Our source for the EC50 values is patent US20140343000A1 (priority 2011, published 2014).

One assay relates to recombinant NL4-3 virus (Renilla luciferase in nef, Gag P373S; NLRluc) in MT-2 cells. Description: whole plant or invertebrate. The note with it: Renilla, NL43, luciferase activity in cells infected for 4-5 days with NLRluc recombinants, serial dilutions of inhibitor; class symbols (key in Table 1); read-out: EC50. The assay is classed as cell-based, HIV. As for the experimental part:
MT-2 cells and 293T cells were obtained from the NIH AIDS Research and Reference Reagent Program. MT-2 cells were propagated in RPMI 1640 media supplemented with 10% heat inactivated fetal bovine serum, […]. The 293T cells were propagated in DMEM media supplemented with 10% heat inactivated fetal bovine serum (FBS), 100 units/ml penicillin G and 100 μg/ml streptomycin. The proviral DNA clone of NL4-3 was obtained from the NIH AIDS Research and Reference Reagent Program. A recombinant NL4-3 virus, in which a section of the nef gene from NL4-3 was replaced with the Renilla luciferase gene, was used as a reference virus. In addition, residue Gag P373 was converted to P373S. Briefly, the recombinant virus was prepared by transfection of the altered proviral clone of NL4-3. Transfections were performed in 293T cells using LipofectAMINE PLUS from Invitrogen (Carlsbad, Calif.), according to manufacturer's instruction. The virus was titered in MT-2 cells using luciferase enzyme activity as a marker. Luciferase was quantitated using the Dual Luciferase kit from Promega (Madison, Wis.), with modifications to the manufacturer's protocol. The diluted Passive Lysis solution was pre-mixed with the re-suspended Luciferase Assay Reagent and the re-suspended Stop & Glo Substrate (2:1:1 ratio). Fifty (50) μL of the mixture was added to each aspirated well on assay plates and luciferase activity was measured immediately on a Wallac TriLux (Perkin-Elmer). Antiviral activities of inhibitors toward the recombinant virus were quantified by measuring luciferase activity in cells infected for 4-5 days with NLRluc recombinants in the presence serial dilutions of the inhibitor. Table 1 is the key for the data in Table 2.
On to `C=C(C)[C@@H]1CC[C@]2(NC(=O)N3CCN(C(=O)OC(C)(C)C)CC3CO)CC[C@]3(C)[C@H](CC[C@@H]4[C@@]5(C)CC=C(c6ccc(C(=O)O)cc6)C(C)(C)[C@@H]5CC[C@]43C)[C@@H]12` (mixture of isomers) [Example 61, 4-((1R,3aS,5aR,5bR,7aR,11aS,11bR,13aR,13bR)-3a-(4-(tert-butoxycarbonyl)-2-(hydroxymethyl)piperazine-1-carboxamido)-5a,5b,8,8,11a-pentamethyl-1-(prop-1-en-2-yl)-2,3,3a,4,5,5a,5b,6,7,7a,8,11,11a,11b,12,13,13a,13b-octadecahydro-1H-cyclopenta[a]chrysen-9-yl)benzoic acid], for which the EC50 (in general, the midpoint of the concentration-response curve) was less than 0.1 µM.

Regarding `C=C(C)[C@@H]1CC[C@]2(NC(=O)N3CCN(C(=O)OC(C)(C)C)CC3C(=O)O)CC[C@]3(C)[C@H](CC[C@@H]4[C@@]5(C)CC=C(c6ccc(C(=O)O)cc6)C(C)(C)[C@@H]5CC[C@]43C)[C@@H]12` (mixture of isomers) [Example 62, 4-(tert-butoxycarbonyl)-1-((1R,3aS,5aR,5bR,7aR,11aS,11bR,13aR,13bR)-9-(4-carboxyphenyl)-5a,5b,8,8,11a-pentamethyl-1-(prop-1-en-2-yl)-2,3,3a,4,5,5a,5b,6,7,7a,8,11,11a,11b,12,13,13a,13b-octadecahydro-1H-cyclopenta[a]chrysen-3a-ylcarbamoyl)piperazine-2-carboxylic acid], the EC50 was less than 0.1 µM.

In the case of `C=C(C)[C@@H]1CC[C@]2(NC(=O)N3CCNC(C(=O)O)C3)CC[C@]3(C)[C@H](CC[C@@H]4[C@@]5(C)CC=C(c6ccc(C(=O)O)cc6)C(C)(C)[C@@H]5CC[C@]43C)[C@@H]12` (mixture of isomers) [Example 63, 4-((1R,3aS,5aR,5bR,7aR,11aS,11bR,13aR,13bR)-9-(4-carboxyphenyl)-5a,5b,8,8,11a-pentamethyl-1-(prop-1-en-2-yl)-2,3,3a,4,5,5a,5b,6,7,7a,8,11,11a,11b,12,13,13a,13b-octadecahydro-1H-cyclopenta[a]chrysen-3a-ylcarbamoyl)piperazine-2-carboxylic acid], the concentration giving a half-maximal response (EC50) is less than 0.1 µM.

Turning to `C=C(C)[C@@H]1CC[C@]2(NC(=O)N3CCNCC(O)C3)CC[C@]3(C)[C@H](CC[C@@H]4[C@@]5(C)CC=C(c6ccc(C(=O)O)cc6)C(C)(C)[C@@H]5CC[C@]43C)[C@@H]12` (mixture of isomers) [Example 64, 4-((1R,3aS,5aR,5bR,7aR,11aS,11bR,13aR,13bR)-3a-(6-hydroxy-1,4-diazepane-1-carboxamido)-5a,5b,8,8,11a-pentamethyl-1-(prop-1-en-2-yl)-2,3,3a,4,5,5a,5b,6,7,7a,8,11,11a,11b,12,13,13a,13b-octadecahydro-1H-cyclopenta[a]chrysen-9-yl)benzoic acid], the EC50 was less than 0.1 µM.

On to `C=C(C)[C@@H]1CC[C@]2(NC(=O)C(c3ccccc3)N3CCS(=O)(=O)CC3)CC[C@]3(C)[C@H](CC[C@@H]4[C@@]5(C)CC=C(c6ccc(C(=O)O)cc6)C(C)(C)[C@@H]5CC[C@]43C)[C@@H]12` (single isomer, unassigned) [Example 91], for which the EC50 is less than 0.1 µM.

Regarding `C=C(C)[C@@H]1CC[C@]2(NC(=O)C(C(C)C)N3CCS(=O)(=O)CC3)CC[C@]3(C)[C@H](CC[C@@H]4[C@@]5(C)CC=C(c6ccc(C(=O)O)cc6)C(C)(C)[C@@H]5CC[C@]43C)[C@@H]12` (single isomer, unassigned) [Example 110], the EC50 was less than 0.1 µM.

Consider `C=C(C)[C@@H]1CC[C@]2(N)CC[C@]3(C)[C@H](CC[C@@H]4[C@@]5(C)CC=C(c6ccc(C(=O)O)cc6)C(C)(C)[C@@H]5CC[C@]43C)[C@@H]12` [Example 1, 4-((1R,3aS,5aR,5bR,7aR,11aS,11bR,13aR,13bR)-3a-amino-5a,5b,8,8,11a-pentamethyl-1-(prop-1-en-2-yl)-2,3,3a,4,5,5a,5b,6,7,7a,8,11,11a,11b,12,13,13a,13b-octadecahydro-1H-cyclopenta[a]chrysen-9-yl)benzoic acid], for which the EC50 was less than 0.1 µM.

Consider `C=C(C)[C@@H]1CC[C@]2(NC(=O)NCC3(NC(=O)OC(C)(C)C)CC3)CC[C@]3(C)[C@H](CC[C@@H]4[C@@]5(C)CC=C(c6ccc(C(=O)O)cc6)C(C)(C)[C@@H]5CC[C@]43C)[C@@H]12` [Example 2], for which the EC50 was less than 0.1 µM.

As to `C=C(C)[C@@H]1CC[C@]2(NC(=O)NC3(C(=O)O)CC3)CC[C@]3(C)[C@H](CC[C@@H]4[C@@]5(C)CC=C(c6ccc(C(=O)O)cc6)C(C)(C)[C@@H]5CC[C@]43C)[C@@H]12` [Example 4, 4-((1R,3aS,5aR,5bR,7aR,11aS,11bR,13aR,13bR)-3a-(3-(1-carboxycyclopropyl)ureido)-5a,5b,8,8,11a-pentamethyl-1-(prop-1-en-2-yl)-2,3,3a,4,5,5a,5b,6,7,7a,8,11,11a,11b,12,13,13a,13b-octadecahydro-1H-cyclopenta[a]chrysen-9-yl)benzoic acid], the EC50 is greater than 0.1 µM.

As for `C=C(C)[C@@H]1CC[C@]2(NC(=O)NC(C)(C)CN3CCOCC3)CC[C@]3(C)[C@H](CC[C@@H]4[C@@]5(C)CC=C(c6ccc(C(=O)O)cc6)C(C)(C)[C@@H]5CC[C@]43C)[C@@H]12` [Example 5, 4-((1R,3aS,5aR,5bR,7aR,11aS,11bR,13aR,13bR)-5a,5b,8,8,11a-pentamethyl-3a-(3-(2-methyl-1-morpholinopropan-2-yl)ureido)-1-(prop-1-en-2-yl)-2,3,3a,4,5,5a,5b,6,7,7a,8,11,11a,11b,12,13,13a,13b-octadecahydro-1H-cyclopenta[a]chrysen-9-yl)benzoic acid], the EC50 was less than 0.1 µM.

Staying with this assay, now noted: Renilla, NL43, luciferase activity in cells infected for 4-5 days with NLRluc recombinants, serial dilutions of inhibitor; numeric values; read-out: EC50.
With `C=C(C)[C@@H]1CC[C@]2(NC(=O)NCCN(C)C)CC[C@]3(C)[C@H](CC[C@@H]4[C@@]5(C)CC=C(c6ccc(C(=O)O)cc6)C(C)(C)[C@@H]5CC[C@]43C)[C@@H]12` [Example 3, 4-((1R,3aS,5aR,5bR,7aR,11aS,11bR,13aR,13bR)-3a-(3-(2-(dimethylamino)ethyl)ureido)-5a,5b,8,8,11a-pentamethyl-1-(prop-1-en-2-yl)-2,3,3a,4,5,5a,5b,6,7,7a,8,11,11a,11b,12,13,13a,13b-octadecahydro-1H-cyclopenta[a]chrysen-9-yl)benzoic acid], the concentration giving a half-maximal response (EC50) worked out at 0.004 µM.

Staying with this assay, now noted: luciferase activity in cells infected for 4-5 days with NLRluc recombinants, serial dilutions of inhibitor; class symbols (key in Table 1); read-out: EC50.
As for `C=C(C)[C@@H]1CC[C@]2(NC(=O)C(c3ccccc3)N3CCS(=O)(=O)CC3)CC[C@]3(C)[C@H](CC[C@@H]4[C@@]5(C)CC=C(c6ccc(C(=O)O)cc6)C(C)(C)[C@@H]5CC[C@]43C)[C@@H]12` (single isomer, unassigned) [Example 92], the EC50 was less than 0.1 µM.

Regarding `C=C(C)[C@@H]1CC[C@]2(NC(=O)C(C(C)C)N3CCS(=O)(=O)CC3)CC[C@]3(C)[C@H](CC[C@@H]4[C@@]5(C)CC=C(c6ccc(C(=O)O)cc6)C(C)(C)[C@@H]5CC[C@]43C)[C@@H]12` (single isomer, unassigned) [Example 111], the 50% effective concentration (EC50) is less than 0.1 µM.
